In publication PMC3767324, “Synthesis, Characterization, and BSA Binding Studies of Some New Benzamides Related to Schiff Base” (ISRN Organic Chemistry, 2013):
Converted amounts (≈) assume the structure as drawn. “And” between values parts separate entries of the source, which are not always exact repeats. Equal values may be shown once.

Tests used:
[1] = tested on: Escherichia coli (NCIM 2574); assay: agar disc diffusion, zone of inhibition; assay type: cell-based; settings: Escherichia coli, NCIM2574, 24 h
[2] = DPPH free radical scavenging activity; settings: DPPH 0.1 mM, absorbance at 517 nm; triplicate, mean ± SD
Description: The capacity to scavenge the stable free radical 2,2-diphenyl-1-picrylhydrazyl (DPPH) was monitored according to the Blois method. The test samples (10–100 μL) were mixed with 1 mL of DPPH (0.1 mM) solution and filled up with methanol to a final volume of 4 mL. Absorbance of the resulting solution was measured at 517 nm in a visible spectrophotometer (Model 166, Systronics, India). The free radical scavenging rate of the reaction solution was calculated as a percentage (%) of DPPH decolouration using the equation (1) I(%)=(Ablank−Asample/Ablank)×100, where A blank is the absorbance of the control reaction mixture excluding the test compounds, and A sample is the absorbance of the test compounds. Radical scavenging potential was expressed as IC50 value, which represents the sample concentration at which 50% of the DPPH radicals were scavenged. Tests were carried out in triplicate and the results were expressed as mean values ± standard deviations.
DPPH radical scavenging activity evaluation is a standard assay in antioxidant activity studies and offers a rapid technique for screening the radical scavenging activity of specific compounds [24]. The free radical scavenging activity of newly synthesized compounds was tested by their ability to bleach the stable radical DPPH. The activity was monitored by following the absorption at 517 nm in a visible spectrophotometer. In the presence of any free radical scavenger, this odd electron pairs up and causes the diminishing of absorption band which is proportional to the number of electrons taken up. The activity was studied at different concentrations for each compound. […] Resulting from a color change from purple to yellow the absorbance decreased when the antioxidant molecule can quench DPPH free radical through donation of hydrogen atom or by electron donating to form a stable DPPH molecule.

[3] = biological target: T1, bovine serum albumin (BSA) (Bos taurus, UniProt P02769); assay: energy transfer from BSA to compound (Forster theory); assay type: binding; settings: for J (spectral overlap): BSA emission / compound UV absorption; for R 0 (critical energy transfer distance): K^2 = 2/3, N = 1.311, Φ = 0.118
T1 construct: Bovine serum albumin (BSA), one of the major components in plasma protein; purchased Sigma Aldrich Bangalore
Excerpt: The binding distance (r) between a protein residue (donor) and a bound drug molecule (acceptor) can be calculated from Foster's nonradiative energy transfer theory. The efficiency of energy transfer E and the distance between the acceptor and donor r can be defined as the following equation [36]: (4) E=1−(F/F0)=R06/R06+r^6, where r is the distance between the acceptor and donor; F and F 0 are the fluorescence intensities of BSA in the presence of and in the absence of quencher, respectively; R 0 is the critical energy transfer distance when the transfer efficiency is 50%. It is given by the following equation: (5) R06=8.8×10^−25K^2N^−4ΦJ.
K ^2 is a factor describing the spatial orientation factor related to the geometry of the donor and acceptor of dipoles; N is the refractive index of medium; Φ is the fluorescence quantum yield of the donor in the absence of acceptor; J is the effect of spectra overlap between the fluorescence emission spectrum of the donor and the UV-vis absorption spectrum of the acceptor, and J can be calculated by (6): (6) J=f(λ)ε(λ)λ^4Δλ/ΣF(λ)Δλ, where F(λ) is the corrected fluorescence intensity of the donor in the wavelength range from λ to λ + Δλ and ε(λ) is the molar absorption coefficient of the acceptor at wavelength λ. In the present case, K ^2 = 2/3, N = 1.311, and Φ = 0.118 for BSA molecules, respectively.

T1 sequence (P02769 25-607): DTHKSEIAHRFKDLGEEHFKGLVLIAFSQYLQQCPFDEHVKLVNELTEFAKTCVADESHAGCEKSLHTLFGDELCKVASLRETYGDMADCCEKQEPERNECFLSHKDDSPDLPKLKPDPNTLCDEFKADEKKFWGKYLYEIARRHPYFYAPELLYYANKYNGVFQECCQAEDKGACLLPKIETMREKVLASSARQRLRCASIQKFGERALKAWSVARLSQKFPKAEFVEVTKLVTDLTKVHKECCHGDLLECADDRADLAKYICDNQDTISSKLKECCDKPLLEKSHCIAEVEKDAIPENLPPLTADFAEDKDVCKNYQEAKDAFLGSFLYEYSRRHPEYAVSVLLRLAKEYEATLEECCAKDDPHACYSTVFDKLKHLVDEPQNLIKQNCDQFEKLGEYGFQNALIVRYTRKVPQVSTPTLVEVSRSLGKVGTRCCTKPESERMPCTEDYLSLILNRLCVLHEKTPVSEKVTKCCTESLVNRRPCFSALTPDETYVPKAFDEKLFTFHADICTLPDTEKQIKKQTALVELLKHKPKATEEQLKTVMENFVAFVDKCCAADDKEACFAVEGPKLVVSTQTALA

Compound | zone of inhibition at 100 µg/mL [1] [mm] | IC50 DPPH [2] | E (efficiency of energy transfer) [3] | r (binding distance between donor BSA and acceptor) [3] [nm] | J (spectral overlap) [3] | R 0 (critical energy transfer distance) [3] [nm]
CC(=O)N(C(=O)c1cc(F)cc(F)c1)c1ccc(N=Cc2cc3ccccc3o2)cc1 [Compound 5h, N-acetyl-N-(4-((benzofuran-2-ylmethylene)amino)phenyl)-3,5-difluorobenzamide] | 11 | > 100 µg/mL and 100 ± 0.19 µg/mL | 0.15 | 2.93 | 4.91 × 10^−14 cm^3 L mol^−1 | 2.16
COc1ccc(C(=O)N(C(C)=O)c2ccc(N=Cc3cc4ccccc4o3)cc2)cc1 [Compound 5i, N-acetyl-N-(4-(benzofuran-2-ylmethyleneamino)phenyl)-4-methoxybenzamide] | 11 | 18.5 ± 0.17 µg/mL (≈ 44.9 µM) | 0.33 | 3.17 | 2.79 × 10^−14 cm^3 L mol^−1 | 2.83
CC(=O)N(C(=O)c1ccc(O)cc1)c1ccc(N=Cc2cc3ccccc3o2)cc1 [Compound 5j, N-acetyl-N-(4-((benzofuran-2-ylmethylene)amino)phenyl)-4-hydroxybenzamide] | 11 | 15.3 ± 0.11 µg/mL (≈ 38.4 µM) | 0.14 | 4.09 | 4.26 × 10^−14 cm^3 L mol^−1 | 3.02
CC(=O)N(C(=O)c1cc(F)c(F)c(F)c1)c1ccc(N=Cc2cc3ccccc3o2)cc1 [Compound 5g, N-acetyl-N-(4-(benzofuran-2-ylmethyleneamino)phenyl)-3,4,5-trifluorobenzamide] | 12.7 | > 100 µg/mL and >125 µg/mL | 0.31 | 3.07 | 2.37 × 10^−14 cm^3 L mol^−1 | 2.86
CC(=O)N(C(=O)c1ccccc1)c1ccc(N=Cc2cc3ccccc3o2)cc1 [Compound 5c, N-acetyl-N -(4-((benzofuran-2-ylmethylene)amino)phenyl)benzamide] | 15 | 61.7 ± 0.55 µg/mL (≈ 161 µM) | 0.14 | 4.11 | 3.05 × 10^−14 cm^3 L mol^−1 | 3.04
CC(=O)N(C(=O)c1cc(F)ccc1F)c1ccc(N=Cc2cc3ccccc3o2)cc1 [Compound 5a, N-acetyl-N-(4-((benzofuran-2-ylmethylene)amino)phenyl)-2,5-difluorobenzamide] | 12 | 97.5 ± 0.37 µg/mL (≈ 233 µM) | 0.11 | 3.77 | 1.05 × 10^−14 cm^3 L mol^−1 | 2.51
